Key:
[1] = tested on: platelets (CD62P+) and CD4+ T cells (CD69+) in whole blood; experiment: In vitro whole blood platelet and CD4+ T-cell activation assay; type: cell-based, human; details: whole blood from healthy donors; platelets to CD4+ T cells
Experimental: We developed a novel human whole blood assay to determine whether other PKC agonists also activate platelets at the same concentrations that are required to activate CD4^+ T cells. Platelet activation was assessed by CD62P (P-selectin), which traffics to the cell surface upon activation and α-granule release. CD4^+ T-cell activation was assessed by CD69 upregulation (Fig 7A).
Whole blood was drawn into sodium citrate tubes using a 21-gauge needle. To prevent potential interference from tissue thromboplastin released during venipuncture, which could affect the accuracy of coagulation testing, the first 2 mL of blood drawn was discarded. PKC agonist molecules were dispensed in a dilution series into 80 μL of blood per well in a flat-bottom 96-well plate and mixed gently. Care was taken not to introduce any mechanical stress-related activation of platelets. […] The remaining 72 μL of blood in the first plate was incubated for 1 additional hour and stained with anti-human CD3 (UCHT1), CD4 (SK3), and CD69 (FN50) (30 minutes in the dark). Red blood cell lysis and fixing was done using BD lyse/fix solution. Stained cells were acquired on BD LSR Fortessa II after washing. […] EC50 values for platelet and CD4 T-cell activation for each agonist was obtained by nonlinear regression curve fit using GraphPad Prism version 9.3.0.

[2] = cited from earlier work
[3] = tested on: latent HIV in total CD4+ T cells; experiment: microbe, parasite or virus in culture; type: cell-based, HIV-1; details: 5 μM
Experimental: Peripheral blood mononuclear cells and CD4^+ T cells used for evaluating PKC agonist and inhibitor molecules were isolated from leukopaks of selected participants as described previously. Isolated CD4^+ T cells (5×10^6 cells/well) were added to 24-well tissue culture plates in 2.5 mL of RPMI medium containing 100 nM each of elvitegravir and efavirenz. Cells were stimulated with DMSO (vehicle control) or the indicated concentrations of PKC agonist molecules. Cells were pretreated with PKC isoform inhibitors (Selleck Chemicals) for 1 hour before addition of PKC agonist at indicated concentrations and maintained at 37 °C, 5% CO2 for 3 days. Cell supernatants from each well were analyzed using the Cobas […] system for quantification of HIV-1 RNA using the HIV-1 test v2.0 kit (Roche Diagnostics).

[4] = biological target: PKC-δ (Homo sapiens, UniProt Q05655); experiment: PKC isoform translocation in A549-tGFP cells; type: cell-based; design: host or cells: A549; details: A549-tGFP cells, 60 minutes; read-out: EC50 for PKC-δ translocation
Chain of PKC-δ (Q05655 whole entry, canonical isoform): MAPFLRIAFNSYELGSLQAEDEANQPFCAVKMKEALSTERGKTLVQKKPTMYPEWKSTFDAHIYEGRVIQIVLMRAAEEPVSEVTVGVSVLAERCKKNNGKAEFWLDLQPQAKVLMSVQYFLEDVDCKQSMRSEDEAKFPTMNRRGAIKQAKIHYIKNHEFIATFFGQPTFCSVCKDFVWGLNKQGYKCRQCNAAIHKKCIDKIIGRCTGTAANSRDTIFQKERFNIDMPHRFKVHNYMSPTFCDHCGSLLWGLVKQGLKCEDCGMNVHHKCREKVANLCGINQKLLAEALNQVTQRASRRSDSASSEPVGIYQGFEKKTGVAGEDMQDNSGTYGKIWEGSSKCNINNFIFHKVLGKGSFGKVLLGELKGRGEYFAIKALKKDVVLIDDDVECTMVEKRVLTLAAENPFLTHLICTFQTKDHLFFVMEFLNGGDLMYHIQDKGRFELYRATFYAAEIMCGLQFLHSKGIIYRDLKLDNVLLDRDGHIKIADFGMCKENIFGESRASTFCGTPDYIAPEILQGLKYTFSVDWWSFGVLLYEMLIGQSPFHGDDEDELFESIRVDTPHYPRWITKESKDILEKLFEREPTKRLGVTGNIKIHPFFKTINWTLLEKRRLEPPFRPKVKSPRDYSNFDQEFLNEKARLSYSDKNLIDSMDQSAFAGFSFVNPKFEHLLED
Experimental: (§1) A description of this effort is reported elsewhere.
(§2) Cellular translocation of PKC isoforms upon activation was determined in 8 A549 cell lines, each expressing a single PKC isoform fused to tGFP (PhenoVista Biosciences). Cells were plated in 384-well plates (80 μL/well) at 10^5 cells/mL in RPMI with 10% FBS and rested overnight. PKC agonist(s) were serially diluted at 1:3 steps in DMSO and added to the cells. After 60 minutes in an incubator at 37 °C, 5% CO2, cells were stained with Hoechst-33342 and fixed with 2% paraformaldehyde for 30 minutes at 4 °C. Cells were then stained with wheat germ agglutinin conjugated to AlexaFluor647 (WGA-647) for 10 minutes at 4 °C, washed to remove excess dye and imaged with Cellomics Array Scan (Thermo Fisher) at room temperature (RT). Images were analyzed using Cellomics automated image analysis algorithm. Plasma membrane translocation was quantified using the ratio between the average fluorescence in the areas at the cell edge defined by WGA-647 and the cytoplasm region.

[5] = biological target: PKC-η (Homo sapiens, UniProt P24723); experiment: PKC isoform translocation in A549-tGFP cells; type: cell-based; design: host or cells: A549; details: A549-tGFP cells, 60 minutes
Chain of PKC-η (P24723 whole entry, canonical isoform): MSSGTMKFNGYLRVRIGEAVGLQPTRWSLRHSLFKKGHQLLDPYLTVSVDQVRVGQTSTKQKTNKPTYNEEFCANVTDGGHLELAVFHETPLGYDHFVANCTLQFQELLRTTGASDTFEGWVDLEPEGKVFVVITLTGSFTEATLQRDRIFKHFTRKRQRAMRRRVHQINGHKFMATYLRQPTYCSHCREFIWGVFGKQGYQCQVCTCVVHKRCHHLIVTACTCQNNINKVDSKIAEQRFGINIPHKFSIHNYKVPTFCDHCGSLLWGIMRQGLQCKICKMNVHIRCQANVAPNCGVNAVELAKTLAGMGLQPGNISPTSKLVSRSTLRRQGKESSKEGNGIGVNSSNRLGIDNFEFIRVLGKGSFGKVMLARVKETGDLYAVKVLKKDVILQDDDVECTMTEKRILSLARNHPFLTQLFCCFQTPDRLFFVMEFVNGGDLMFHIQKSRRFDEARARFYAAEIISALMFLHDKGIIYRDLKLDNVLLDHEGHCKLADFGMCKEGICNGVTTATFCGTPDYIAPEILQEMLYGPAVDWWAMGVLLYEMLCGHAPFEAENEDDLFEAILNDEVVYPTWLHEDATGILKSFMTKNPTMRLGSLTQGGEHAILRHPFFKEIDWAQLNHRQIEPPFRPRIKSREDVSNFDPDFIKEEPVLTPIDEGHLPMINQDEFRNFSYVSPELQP
Experimental: as §1, §2

[6] = biological target: PKC-θ (Homo sapiens, UniProt Q04759); experiment: PKC isoform translocation in A549-tGFP cells; type: cell-based; design: host or cells: A549; details: A549-tGFP cells, 60 minutes
Chain of PKC-θ (Q04759 whole entry, canonical isoform): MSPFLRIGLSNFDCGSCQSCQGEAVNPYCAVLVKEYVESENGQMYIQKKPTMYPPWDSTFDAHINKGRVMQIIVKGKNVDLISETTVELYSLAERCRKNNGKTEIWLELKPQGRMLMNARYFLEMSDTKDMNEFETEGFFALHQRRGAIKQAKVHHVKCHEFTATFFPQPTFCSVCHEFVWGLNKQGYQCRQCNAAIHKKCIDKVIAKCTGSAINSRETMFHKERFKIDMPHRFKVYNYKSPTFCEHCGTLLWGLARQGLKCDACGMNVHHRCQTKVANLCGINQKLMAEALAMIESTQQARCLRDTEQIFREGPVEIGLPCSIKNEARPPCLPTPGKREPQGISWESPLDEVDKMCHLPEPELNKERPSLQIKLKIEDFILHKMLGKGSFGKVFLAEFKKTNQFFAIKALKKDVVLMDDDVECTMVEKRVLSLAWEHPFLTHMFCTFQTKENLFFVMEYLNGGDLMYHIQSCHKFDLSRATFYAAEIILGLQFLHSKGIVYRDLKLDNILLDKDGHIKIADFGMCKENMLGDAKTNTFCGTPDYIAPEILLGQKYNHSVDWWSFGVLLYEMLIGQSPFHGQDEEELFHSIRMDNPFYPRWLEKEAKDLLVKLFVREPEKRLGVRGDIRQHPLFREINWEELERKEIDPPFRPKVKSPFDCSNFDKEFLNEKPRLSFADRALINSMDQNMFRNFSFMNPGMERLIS
Experimental: as §1, §2

[7] = biological target: PKC-α (Homo sapiens, UniProt P17252); experiment: PKC isoform translocation in A549-tGFP cells; type: cell-based; design: host or cells: A549; details: A549-tGFP cells, 60 minutes; read-out: EC50 for PKC-α translocation
Experimental: as §1, §2

[8] = biological target: T1, PKC-ε (Homo sapiens, UniProt Q02156); experiment: PKC isoform translocation in A549-tGFP cells; type: cell-based; design: host or cells: A549; details: A549-tGFP cells, 60 minutes
T1 sequence (Q02156 1-737): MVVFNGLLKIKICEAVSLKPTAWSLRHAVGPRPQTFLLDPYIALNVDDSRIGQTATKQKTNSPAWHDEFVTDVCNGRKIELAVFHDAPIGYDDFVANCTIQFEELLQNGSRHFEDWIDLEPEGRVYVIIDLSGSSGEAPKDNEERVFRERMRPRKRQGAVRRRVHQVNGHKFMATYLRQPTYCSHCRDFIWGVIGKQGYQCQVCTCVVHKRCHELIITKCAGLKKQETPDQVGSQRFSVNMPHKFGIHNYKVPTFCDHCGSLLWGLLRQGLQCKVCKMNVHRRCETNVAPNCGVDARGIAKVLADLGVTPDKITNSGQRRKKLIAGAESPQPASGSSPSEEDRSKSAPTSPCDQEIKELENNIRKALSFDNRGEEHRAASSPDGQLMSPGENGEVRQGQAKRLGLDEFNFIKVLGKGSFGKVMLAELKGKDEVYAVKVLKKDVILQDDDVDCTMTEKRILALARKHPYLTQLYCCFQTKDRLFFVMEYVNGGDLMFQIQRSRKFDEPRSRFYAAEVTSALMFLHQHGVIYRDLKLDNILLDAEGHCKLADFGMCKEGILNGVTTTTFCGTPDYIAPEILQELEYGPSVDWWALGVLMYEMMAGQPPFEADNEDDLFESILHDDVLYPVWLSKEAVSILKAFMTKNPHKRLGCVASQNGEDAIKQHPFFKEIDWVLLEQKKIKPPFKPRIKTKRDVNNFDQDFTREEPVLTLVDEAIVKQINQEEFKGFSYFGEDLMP
Experimental: (§3) Using these findings we embarked on new designs for DAG-lactones with additional substituents from the ester moiety in combination with a few olefin substituents. A description of this effort is reported elsewhere.
as §2

[9] = biological target: PKC-β1 (Homo sapiens, UniProt P05771); experiment: PKC isoform translocation in A549-tGFP cells; type: cell-based; design: host or cells: A549; details: 60 minutes
Chain of PKC-β1 (P05771 whole entry, canonical isoform): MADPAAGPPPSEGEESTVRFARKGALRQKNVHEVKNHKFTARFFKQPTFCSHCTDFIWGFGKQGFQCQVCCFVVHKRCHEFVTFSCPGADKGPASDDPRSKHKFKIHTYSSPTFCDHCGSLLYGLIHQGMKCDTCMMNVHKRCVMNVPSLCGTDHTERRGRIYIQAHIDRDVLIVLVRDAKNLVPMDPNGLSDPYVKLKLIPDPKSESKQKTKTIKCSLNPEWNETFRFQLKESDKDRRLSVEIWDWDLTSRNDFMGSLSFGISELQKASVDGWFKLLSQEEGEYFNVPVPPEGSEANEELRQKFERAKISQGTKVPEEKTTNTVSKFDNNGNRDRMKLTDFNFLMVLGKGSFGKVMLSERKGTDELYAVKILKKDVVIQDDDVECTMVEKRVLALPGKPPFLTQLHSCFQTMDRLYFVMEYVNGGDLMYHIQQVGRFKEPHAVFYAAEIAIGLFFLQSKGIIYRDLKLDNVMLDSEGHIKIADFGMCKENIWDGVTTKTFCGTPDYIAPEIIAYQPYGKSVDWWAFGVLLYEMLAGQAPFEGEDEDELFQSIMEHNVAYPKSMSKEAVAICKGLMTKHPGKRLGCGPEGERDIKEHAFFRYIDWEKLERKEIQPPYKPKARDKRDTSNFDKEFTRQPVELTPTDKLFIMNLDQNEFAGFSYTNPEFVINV
Experimental: as §3, §2

[10] = biological target: PKC-β2 (Homo sapiens, UniProt P05771); experiment: PKC isoform translocation in A549-tGFP cells; type: cell-based; design: host or cells: A549; details: 60 minutes
Chain of PKC-β2 (P05771 1-673 isoform P05771-2): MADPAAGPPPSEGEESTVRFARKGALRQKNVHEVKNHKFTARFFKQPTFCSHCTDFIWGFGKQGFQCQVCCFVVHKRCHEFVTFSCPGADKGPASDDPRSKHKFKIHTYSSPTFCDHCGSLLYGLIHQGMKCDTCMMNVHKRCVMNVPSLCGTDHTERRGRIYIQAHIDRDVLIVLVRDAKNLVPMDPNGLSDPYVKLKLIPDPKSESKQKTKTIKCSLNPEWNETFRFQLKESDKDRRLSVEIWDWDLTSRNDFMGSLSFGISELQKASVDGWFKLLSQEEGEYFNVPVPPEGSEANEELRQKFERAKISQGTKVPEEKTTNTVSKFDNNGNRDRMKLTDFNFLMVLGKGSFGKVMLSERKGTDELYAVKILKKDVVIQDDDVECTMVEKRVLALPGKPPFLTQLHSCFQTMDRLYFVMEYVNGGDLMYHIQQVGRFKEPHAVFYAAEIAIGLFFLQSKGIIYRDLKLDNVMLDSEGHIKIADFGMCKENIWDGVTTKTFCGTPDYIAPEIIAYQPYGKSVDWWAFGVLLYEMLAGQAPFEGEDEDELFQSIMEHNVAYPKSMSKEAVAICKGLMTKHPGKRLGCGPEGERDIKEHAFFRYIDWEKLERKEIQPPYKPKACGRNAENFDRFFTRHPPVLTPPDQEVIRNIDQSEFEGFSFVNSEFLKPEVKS
Experimental: as §3, §2

Structure (SMILES): CCC/C=C/C=C/C(=O)O[C@H]1/C(=C/C(=O)OC)C[C@H]2C[C@H]([C@@H](C)O)OC(=O)C[C@H](O)C[C@@H]3C[C@H](OC(C)=O)C(C)(C)[C@](O)(C[C@@H]4C/C(=C/C(=O)OC)C[C@H](/C=C/C(C)(C)[C@]1(O)O2)O4)O3 [Bryostatin, reference compound]
- CD62P EC50/CD69 EC50 ratio Geomean [1]: 0.9
- dose-limiting toxicity [2]: myalgia

Structure (SMILES): CCCCCCCCCCCCCC(=O)O[C@@H]1[C@@H](C)[C@@]2(O)[C@@H](C=C(CO)C[C@]3(O)C(=O)C(C)=C[C@@H]23)[C@@H]2C(C)(C)[C@]12OC(C)=O [PMA, phorbol 12-myristate 13-acetate, reference compound]
- CD62P EC50/CD69 EC50 ratio Geomean [1]: 1.5

Structure (SMILES): CC(C)[C@H]1C(=O)N[C@H](CO)Cc2c[nH]c3cccc(c23)N1C [Indolactam, reference compound]
- CD62P EC50/CD69 EC50 ratio Geomean [1]: 2.0

Structure (SMILES): CC(C)=C1CC(CO)(COC(=O)c2ccc(C#Cc3ccc(C)cc3)cc2)OC1=O (centres unmarked) [Comin compound 2]
- HIV RNA Fold∆ over DMSO, Geomean ([3]; agonist alone): 13 fold
- HIV RNA Fold∆ over DMSO, Geomean ([3]; +5 μM Gö-6850 Pan-PKC Inhibitor): 1.6 fold
- HIV RNA Fold∆ over DMSO, Geomean ([3]; +25 μM Gö-6976 Classical-PKC Inhibitor): 15 fold
- EC50 [4]: 4.04 µM
- EC50 [5]: 1.19 µM
- EC50 [6]: 0.792 µM
- EC50 [7]: > 50 µM
- EC50 [8]: 0.783 µM
- EC50 [9]: 0.966 µM
- EC50 [10]: 6.65 µM

Source: paper PMC11801715, “Activating PKC-ε induces HIV expression with improved tolerability” (PLOS Pathogens, 2025)
